This is an account of results in US9388166B2, “6-aminoindole derivatives as TRP channel antagonists” (Hoffmann-La Roche Inc., priority 2012, dated 2016).

A word on the IC50: it is the point on the concentration scale where inhibition reaches its midpoint.

The assay concerns the target T1, hTRPA1 (Homo sapiens, UniProt O75762).
T1 construct: host or cells: CHO-K1 Tet-On, clone 20, expression induced with tetracycline/doxycycline
Briefly: Dose response calcium flux (FLIPR) assay, ChanTest hTRPA1-CHO stably transfected cell line, cinnamaldehyde agonist. Format: cell-based. The note with it: CHO-K1 Tet-On hTRPA1 Clone 20 cells, 30 min compound preincubation, cinnamaldehyde final 100 uM. The protocol: Dose Response Assay: ChanTest hTRPA1-CHO Stably Transfected Cell Line
To induce expression, tetracycline was added to blasticidin/zeocin-free media at a final concentration of 1 ug/ml. Experiments were run at 24 h post induction.
Measured cell density and diluted to 2.4×10^5 cells/ml in media containing 1 ug/ml Doxycycline Plate 25 ul/well into 384 well black/clear tissue culture-treated plates.
Replacement Buffer: Hank's Balanced Salt Solution, 20 mM HEPES along with 0.005% BSA and 2× Probenecid
Dye Loading Buffer: Cal-3 NW Calcium dye was prepared by dissolving the contents of one vial with 500 ml Hank's Balanced Salt Solution containing 20 mM HEPES. • Control compounds for CHOK1/TRPA1 cells:
AP-18, stock 10 mM, prepare 3.5× compound dilution in a Compound Buffer (HBSS/20mM HEPES/0.005% BSA)—final concentration 10 uM.
Preparation of Cinnamaldehyde (agonist addition): • FW=132.16 • Specific gravity=1.046 gm/cc • 1.32 gm/1.046 gm/cc=1.26 ml of stock • Add 1.74 ml DMSO=3.3 M stock • Working solution 4.5× (final 100 uM in Compound Buffer: HBSS/20 mM HEPES/0.005% BSA)
Compounds dilutions were prepared from 5 or 10 mM stock (100% DMSO):
Compounds were tested at either 20 μM three folds dilution 11 steps out or 30 μM two folds dilution 11 steps out.
3 μl of diluted compound were transferred into Weidmann 384—well plate in duplicates side-by-side.
Compound plates were resuspended with 100 ul of HBSS/20 mM HEPES/0.005% BSA buffer (Compound Buffer): • column 1A-H: buffer/DMSO (bk) • column 2A-H: AP-18(control antagonist for CHOK1 TRPA1 cells) • column 1I-P: ATP (control for CHOK1 teton cells) • column 2 I-P: 2APB (control antagonist for CHOK1/TRPM8 cells).
Growth media was removed from the cell plates (20 ul) and 20 ul of the Replacement Buffer was added followed by addition of 25 ul of diluted dye. All three steps were performed using a Plate Washer BioTek 407. The plates were then incubated for 30′ at RT.
After incubation, both the cell and compound plates were brought to the FLIPR and 20 ul of the diluted compounds/antagonist/bk were transferred to the cell plates by the FLIPR. Plates were then incubated for 30′ at room temperature. After 30′ incubation, plates were returned to the FLIPR and 20 ul of 4.5× Cinnamaldehyde was added to the cell plates. During the compound addition as well as agonist addition, fluorescence readings were taken simultaneously from all 384 wells of the cell plate every 1.5 seconds. Five readings were taken to establish a stable baseline, then 20 μl of sample was rapidly (30 ul/sec) and simultaneously added to each well of the cell plate. The fluorescence was continuously monitored before, during and after sample/agonist addition for a total elapsed time of 100 seconds (compound addition) and 120 seconds (agonist addition). Responses (increase in peak fluorescence) in each well following agonist addition was determined. The initial fluorescence reading from each well, prior to ligand stimulation, was used a zero baseline value for the data from that well.
(A change in cytosolic calcium serves as a functional read-out for many receptors and channels.)

T1 sequence (O75762 whole entry): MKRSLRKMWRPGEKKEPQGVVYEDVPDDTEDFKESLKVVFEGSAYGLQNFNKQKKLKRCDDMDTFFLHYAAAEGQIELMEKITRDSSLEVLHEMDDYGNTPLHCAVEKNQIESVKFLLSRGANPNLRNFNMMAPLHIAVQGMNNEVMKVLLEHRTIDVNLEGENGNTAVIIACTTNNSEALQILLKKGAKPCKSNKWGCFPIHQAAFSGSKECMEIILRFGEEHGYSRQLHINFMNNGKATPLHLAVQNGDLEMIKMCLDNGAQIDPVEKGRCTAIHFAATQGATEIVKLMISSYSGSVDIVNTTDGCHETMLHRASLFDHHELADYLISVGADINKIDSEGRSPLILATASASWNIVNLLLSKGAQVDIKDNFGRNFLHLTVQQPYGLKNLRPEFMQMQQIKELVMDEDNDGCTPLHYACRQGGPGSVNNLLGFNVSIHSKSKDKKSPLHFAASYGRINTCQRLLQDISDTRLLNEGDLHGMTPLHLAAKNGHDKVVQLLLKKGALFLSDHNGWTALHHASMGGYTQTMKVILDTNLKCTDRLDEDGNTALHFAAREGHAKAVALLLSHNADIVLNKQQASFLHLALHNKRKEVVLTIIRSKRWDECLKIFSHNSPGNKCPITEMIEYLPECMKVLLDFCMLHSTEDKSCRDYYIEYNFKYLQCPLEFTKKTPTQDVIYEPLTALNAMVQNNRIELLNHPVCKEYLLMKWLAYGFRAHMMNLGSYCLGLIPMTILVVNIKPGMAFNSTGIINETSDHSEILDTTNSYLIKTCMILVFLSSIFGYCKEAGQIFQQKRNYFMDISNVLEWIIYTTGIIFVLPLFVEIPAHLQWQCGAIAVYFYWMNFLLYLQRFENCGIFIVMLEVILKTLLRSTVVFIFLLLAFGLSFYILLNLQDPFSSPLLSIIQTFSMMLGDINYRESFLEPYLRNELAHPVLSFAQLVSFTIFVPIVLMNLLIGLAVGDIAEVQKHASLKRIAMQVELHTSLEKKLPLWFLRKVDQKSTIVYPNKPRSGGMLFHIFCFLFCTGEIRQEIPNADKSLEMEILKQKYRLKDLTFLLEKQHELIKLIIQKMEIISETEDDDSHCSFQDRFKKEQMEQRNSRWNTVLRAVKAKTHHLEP

As to `COc1nccc(I)c1-c1cc2ccc(NC(=O)OC(C)(C)C)cc2[nH]1` [Example 1, [2-(4-Iodo-2-methoxy-pyridin-3-yl)-1H-indol-6-yl]-carbamic acid tert-butyl ester], the IC50 stood at 4 µM.

Regarding `COc1nccc(I)c1-c1cc2ccc(NC(=O)C(F)(F)F)cc2[nH]1` [Example 2, 2,2,2-Trifluoro-N-[2-(4-iodo-2-methoxy-pyridin-3-yl)-1H-indol-6-yl]-acetamide], the IC50 came to 0.71 µM. Turning to `COc1nccc(I)c1-c1cc2ccc(NC(=O)C(F)F)cc2[nH]1` [Example 3, 2,2-Difluoro-N-[2-(4-iodo-2-methoxy-pyridin-3-yl)-1H-indol-6-yl]-acetamide], the IC50 was 4.2 µM. Under `COc1nccc(Cl)c1-c1cc2ccc(NC(=O)C(F)(F)F)cc2[nH]1` [Example 4, N-[2-(4-Chloro-2-methoxy-pyridin-3-yl)-1H-indol-6-yl]-2,2,2-trifluoro-acetamide] stands 0.46 µM; under `CNc1ccc2cc(-c3c(I)ccnc3OC)[nH]c2c1` [Example 5, [2-(4-Iodo-2-methoxy-pyridin-3-yl)-1H-indol-6-yl]-methyl-amine], 5.5 µM. As for `COc1nccc(I)c1-c1cc2ccc(N(C)C(=O)C(F)F)cc2[nH]1` [Example 6, 2,2-Difluoro-N-[2-(4-iodo-2-methoxy-pyridin-3-yl)-1H-indol-6-yl]-N-methyl-acetamide], the IC50 was 3.3 µM.

As to `COc1nccc(I)c1-c1cc2ccc(N(C)C(C)=O)cc2[nH]1` [Example 7, N-[2-(4-Iodo-2-methoxy-pyridin-3-yl)-1H-indol-6-yl]-N-methyl-acetamide], the IC50 was found to be 3.6 µM. Under `COc1cc2cc(-c3c(I)ccnc3OC)[nH]c2cc1N` [Example 8, 2-(4-Iodo-2-methoxy-pyridin-3-yl)-5-methoxy-1H-indol-6-ylamine] stands 0.74 µM. As to `COc1cccc(Cl)c1-c1cc2ccc(N)cc2[nH]1` [Example 9, 2-(2-Chloro-6-methoxy-phenyl)-1H-indol-6-ylamine], the IC50 is 4.3 µM. As for `COc1cccc(Cl)c1-c1cc2ccc(NC(=O)C(F)(F)F)cc2[nH]1` [Example 10, N-[2-(2-Chloro-6-methoxy-phenyl)-1H-indol-6-yl]-2,2,2-trifluoro-acetamide], the half-inhibitory concentration (IC50) is 0.75 µM. For the molecule `COc1nccc(I)c1-c1cc2ccc(NC(=O)c3cccc(Cl)c3)cc2[nH]1` [Example 11, 3-Chloro-N-[2-(4-iodo-2-methoxy-pyridin-3-yl)-1H-indol-6-yl]-benzamide], the IC50 was determined as 2.9 µM. Consider `COc1nccc(Cl)c1-c1cc2ccc(NC(=O)c3cccc(Cl)c3)cc2[nH]1` [Example 12, 3-Chloro-N-[2-(4-chloro-2-methoxy-pyridin-3-yl)-1H-indol-6-yl]-benzamide], for which the IC50 was found to be 5.6 µM. Take `COc1nccc(Cl)c1-c1cc2ccc(NC(=O)[C@@H]3CCCCN3S(=O)(=O)c3ccc(F)cc3)cc2[nH]1` [Example 13, (S)-1-(4-Fluoro-benzenesulfonyl)-piperidine-2-carboxylic acid[2-(4-chloro-2-methoxy-pyridin-3-yl)-1H-indol-6-yl]amide]: the IC50 turned out to be 3.5 µM.
